In this experiment the target is T1, calpain-I isolated from human erythrocytes (Homo sapiens, UniProt P07384).
T1 construct: calpain-I—isolated from human erythrocytes; purchased Calbiochem 208713; host or cells: human erythrocytes (native tissue isolate)
T1 sequence (P07384 1-714): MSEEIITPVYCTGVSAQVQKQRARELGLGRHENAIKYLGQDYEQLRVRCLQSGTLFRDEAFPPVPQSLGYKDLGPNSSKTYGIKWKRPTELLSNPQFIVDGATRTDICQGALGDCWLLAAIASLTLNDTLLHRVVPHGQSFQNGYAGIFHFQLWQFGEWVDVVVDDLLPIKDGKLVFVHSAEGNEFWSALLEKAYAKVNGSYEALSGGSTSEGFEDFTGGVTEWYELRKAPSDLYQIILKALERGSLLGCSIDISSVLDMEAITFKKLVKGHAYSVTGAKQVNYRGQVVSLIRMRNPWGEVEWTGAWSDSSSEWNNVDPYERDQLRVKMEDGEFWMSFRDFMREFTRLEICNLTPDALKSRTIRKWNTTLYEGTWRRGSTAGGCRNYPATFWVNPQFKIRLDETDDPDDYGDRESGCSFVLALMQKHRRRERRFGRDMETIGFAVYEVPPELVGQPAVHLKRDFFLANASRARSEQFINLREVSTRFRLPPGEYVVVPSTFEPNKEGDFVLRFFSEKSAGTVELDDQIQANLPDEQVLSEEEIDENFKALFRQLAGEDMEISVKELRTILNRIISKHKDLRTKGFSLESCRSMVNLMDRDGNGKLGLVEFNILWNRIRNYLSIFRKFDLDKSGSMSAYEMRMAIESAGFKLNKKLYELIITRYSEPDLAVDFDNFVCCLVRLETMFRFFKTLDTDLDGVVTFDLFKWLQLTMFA
T1 sequence (P04632 1-268 partner): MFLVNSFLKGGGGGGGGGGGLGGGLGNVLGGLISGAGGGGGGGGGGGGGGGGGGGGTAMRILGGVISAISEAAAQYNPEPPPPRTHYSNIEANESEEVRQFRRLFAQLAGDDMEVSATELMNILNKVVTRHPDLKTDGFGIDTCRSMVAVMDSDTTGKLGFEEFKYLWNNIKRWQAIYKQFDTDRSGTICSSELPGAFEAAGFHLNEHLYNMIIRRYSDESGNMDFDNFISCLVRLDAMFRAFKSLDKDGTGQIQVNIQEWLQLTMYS
Briefly: Calpain I enzyme inhibition, kinetic fluorescence assay. The format is biochemical. As to conditions: apparent Ki from IC50 by Cheng-Prussoff; pH 7.3, room temperature. As for the experimental part: The following solutions and buffers were employed: • HBS (for 40 ml): 800 μl 1M HEPES; 2.16 ml 100 mM KCl; 4.8 ml 1M NaCl; 3.59 ml 5% glucose; 60 μl 1M MgSO4; 400 μl 100 mM Na pyruvate, 28.19 ml water; pH 7.2-7.5. • lysis buffer (for 20 ml): 400 μl 1M Tris pH 8.2; 2.74 ml 1M NaCl; 520 μl 0.5M EDTA; 2 ml 10% triton X-100; 0.8 ml (=1:25) CompletePlus (1 tablet/2 ml H2O); 200 μl 100 mM Pefabloc; 13.34 ml water, pH 8.2. • TBST (10×) (for 1I): 100 mM Tris (12.1 g); 1.5M NaCl (87 g); 1% Tween 20 (10 g), adjusted to pH 8. I. Enzyme Inhibition In Vitro: • Testing for blockade of the corresponding enzymic activities was carried out by means of kinetic fluorescence assays (excitation 390 nm, emission 460 nm). • Apparent Ki values were calculated from the experimentally determined IC50 values by the Cheng-Prussoff relation assuming a reversible competitive enzyme inhibition. The Km values of the substrates used under the assay conditions indicated above were: 90 μM (Z-Phe-Arg-AMC, cathepsin B), 10 μM (Z-Gly-Pro-Arg-AMC, cathepsin K), 2 μM (Z-Phe-Arg-AMC, cathepsin L), and 30 μM (Z-Val-Val-Arg-AMC, cathepsin S). • The indicated Ki values are averages of the inhibition constants calculated on the basis of 2 to 4 independent dose-effect plots. • The following assays were used: • 1. Calpain I: • 20 nM calpain-I—isolated from human erythrocytes (Calbiochem #208713), 100 μM Suc-Leu-Tyr-AMC (Bachem #I-1355) as substrate in buffer with 62 mM imidazole, 0.3 mM CaCl2, 0.10% CHAPS, 0.05% BSA, 1 mM DTT at pH 7.3 and room temperature. • 2. Cathepsin B: • 0.25 nM cathepsin B—isolated from human liver (Calbiochem #219362), 100 μM Z-Phe-Arg-AMC (Bachem #I-1160) as substrate 50 mM MES, 2 mM EDTA, 0.05% Brij 35, 2.5 mM L-cysteine, pH 6.0, room temperature. • 3. Cathepsin K: • 3 nM cathepsin K—activated from recombinant human procathepsin K from E. coli (Calbiochem #342001), 10 μM Z-Gly-Pro-Arg-AMC (Biomol #P-142) as substrate in 50 mM MES, 2 mM EDTA, 0.05% Brij 35, 2.5 mM L-cysteine, pH 6.0, room temperature. • 4. Cathepsin L: • 1 nM cathepsin L—isolated from human liver (Calbiochem #219402), 2 μM Z-Phe-Arg-AMC (Bachem #I-1160) as substrate in 50 mM MES, 2 mM EDTA, 0.05% Brij 35, 2.5 mM L-cysteine, pH 6.0, room temperature. • 5. Cathepsin S: • 0.5 nM recombinant human cathepsin S from E. coli (Calbiochem #219343), 20 μM Z-Val-Val-Arg-AMC (Bachem #I-1540) as substrate in 50 mM MES, 2 mM EDTA, 0.05% Brij 35, 2.5 mM L-cysteine, pH 6.0, room temperature. • The results of the in vitro determination are indicated in Table 2. The following abbreviations are used in Table 2: • The “Calpain activity” column, ++ stands for a calpain Ki (Ki(calpain)) of ≦40 nM, + means: 40 nM<Ki(Calpain)≦100 nM, 0 means 100 nM<Ki(Calpain)≦1 μM, − means 1 μM<Ki(Calpain)≦10 μM, −− means Ki(Calpain)>10 μM. • The “Sel. cat. B” column indicates the Ki(cathepsin B)/Ki(calpain) ratio. In this connection, ++ means a Ki(cathepsin B)/Ki(calpain) ratio of ≧30 and + means≦10≦Ki(cathepsin B)/Ki(calpain)<30. • The “Sel. cat. K” column indicates the Ki(cathepsin K)/Ki(calpain) ratio. In this connection, ++ means a Ki(cathepsin K)/Ki(calpain) ratio of ≧30 and + means 10≦Ki(cathepsin K)/Ki(calpain)<30. • The “Sel. cat. L” column indicates the Ki(cathepsin L)/Ki(calpain) ratio. In this connection, ++ means a Ki(cathepsin L)/Ki(calpain) ratio of ≧50 and + means 30≦Ki(cathepsin L)/Ki(calpain)<50. • The “Sel. cat. S” column indicates the Ki(cathepsin S)/Ki(calpain) ratio. […]

The results in this text go back to US9150553B2, “Carboxamide compounds and their use as calpain inhibitors” (AbbVie Deutschland GmbH & Co. KG, priority 2007, dated 2015).

Some results are limits rather than exact numbers.

For `NC(=O)C1(C(Cc2ccccc2)NC(=O)c2cccnc2-n2ccc(-c3cccc(C(F)(F)F)c3)n2)OCCO1` (stereo not shown) [Compound I-2, N-{1-[2-(Aminocarbonyl)-1,3-dioxolan-2-yl]-2-phenylethyl}-2-{3-[3-(trifluoromethyl)phenyl]-1H-pyrazol-1-yl}nicotinamide], the Ki is greater than 10 µM.
